Data reported in ChEMBL document CHEMBL3769405, “Discovery of Potent and Selective Inhibitors of Phosphodiesterase 1 for the Treatment of Cognitive Impairment Associated with Neurodegenerative and Neuropsychiatric Diseases” (J Med Chem, 2016).
≈ marks a conversion by molar mass, not a printed value.

Assays:
[1] = Intrinsic clearance in human liver microsomes; type: ADME; settings: read-out: CLH
[2] = molecular target: 3',5'-cyclic-AMP phosphodiesterase 4A (Homo sapiens, UniProt P27815); experiment: Inhibition of recombinant full lenght human PDE4A using fluorescent labeled cAMP as substrate after 15 mins by IMAP assay
3',5'-cyclic-AMP phosphodiesterase 4A, sequence (P27815 whole entry): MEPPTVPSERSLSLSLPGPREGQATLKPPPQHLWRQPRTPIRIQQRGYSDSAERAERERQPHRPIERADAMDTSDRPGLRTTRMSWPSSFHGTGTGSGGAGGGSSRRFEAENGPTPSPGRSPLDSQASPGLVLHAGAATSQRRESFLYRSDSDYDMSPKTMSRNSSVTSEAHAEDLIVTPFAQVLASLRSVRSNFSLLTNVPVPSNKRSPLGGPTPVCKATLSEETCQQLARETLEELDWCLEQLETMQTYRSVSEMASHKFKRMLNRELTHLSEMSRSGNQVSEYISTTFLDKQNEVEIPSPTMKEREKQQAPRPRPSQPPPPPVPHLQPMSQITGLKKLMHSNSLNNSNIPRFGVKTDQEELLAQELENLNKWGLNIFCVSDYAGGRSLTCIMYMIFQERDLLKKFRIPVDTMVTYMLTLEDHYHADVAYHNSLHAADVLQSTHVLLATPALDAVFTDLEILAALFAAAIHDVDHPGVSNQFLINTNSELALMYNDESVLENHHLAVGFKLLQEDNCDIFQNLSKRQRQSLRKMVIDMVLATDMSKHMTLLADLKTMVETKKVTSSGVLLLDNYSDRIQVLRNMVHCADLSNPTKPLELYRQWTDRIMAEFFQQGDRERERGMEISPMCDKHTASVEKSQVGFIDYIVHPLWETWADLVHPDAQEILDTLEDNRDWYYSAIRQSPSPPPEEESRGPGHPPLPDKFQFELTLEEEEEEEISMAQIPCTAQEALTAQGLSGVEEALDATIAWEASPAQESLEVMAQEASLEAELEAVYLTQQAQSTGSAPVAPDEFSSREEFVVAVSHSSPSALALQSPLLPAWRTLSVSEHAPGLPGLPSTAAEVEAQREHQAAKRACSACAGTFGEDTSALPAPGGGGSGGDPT

[3] = Cmax in C57BL/6 mouse brain at 10 mg/kg administered through oral gavage; type: ADME, organism-based; design: dose 10 mg/kg, route oral
[4] = Lipophilicity, logD of compound at pH 1.7; type: physicochemical; settings: buffer
[5] = Lipophilicity, logD of compound at pH 7.4; type: physicochemical; settings: buffer
[6] = Cmax in C57BL/6 mouse plasma at 10 mg/kg administered through oral gavage; type: ADME, organism-based; design: dose 10 mg/kg, route oral
[7] = AUClast in C57BL/6 mouse plasma at 10 mg/kg administered through oral gavage; type: ADME, organism-based; design: dose 10 mg/kg, time 0 - last, route oral
[8] = Solubility of compound in PBS; type: physicochemical
[9] = Selectivity ratio of Ki for recombinant full lenght human PDE4A to bovine brain PDE1
[10] = Inhibition of bovine brain PDE1 using fluorescent labeled cGMP as substrate after 15 mins by IMAP assay; design: species or system Bos taurus
[11] = in vivo; settings: C57BL/6, mouse, brain/plasma
[12] = AUClast in C57BL/6 mouse brain at 10 mg/kg administered through oral gavage; type: ADME, organism-based; design: dose 10 mg/kg, time 0 - last, route oral
[13] = molecular target: cGMP-dependent 3',5'-cyclic phosphodiesterase (Homo sapiens, UniProt O00408); experiment: Inhibition of recombinant full length human PDE2A using fluorescent labeled cAMP as substrate after 15 mins by IMAP assay
cGMP-dependent 3',5'-cyclic phosphodiesterase, sequence (O00408 whole entry): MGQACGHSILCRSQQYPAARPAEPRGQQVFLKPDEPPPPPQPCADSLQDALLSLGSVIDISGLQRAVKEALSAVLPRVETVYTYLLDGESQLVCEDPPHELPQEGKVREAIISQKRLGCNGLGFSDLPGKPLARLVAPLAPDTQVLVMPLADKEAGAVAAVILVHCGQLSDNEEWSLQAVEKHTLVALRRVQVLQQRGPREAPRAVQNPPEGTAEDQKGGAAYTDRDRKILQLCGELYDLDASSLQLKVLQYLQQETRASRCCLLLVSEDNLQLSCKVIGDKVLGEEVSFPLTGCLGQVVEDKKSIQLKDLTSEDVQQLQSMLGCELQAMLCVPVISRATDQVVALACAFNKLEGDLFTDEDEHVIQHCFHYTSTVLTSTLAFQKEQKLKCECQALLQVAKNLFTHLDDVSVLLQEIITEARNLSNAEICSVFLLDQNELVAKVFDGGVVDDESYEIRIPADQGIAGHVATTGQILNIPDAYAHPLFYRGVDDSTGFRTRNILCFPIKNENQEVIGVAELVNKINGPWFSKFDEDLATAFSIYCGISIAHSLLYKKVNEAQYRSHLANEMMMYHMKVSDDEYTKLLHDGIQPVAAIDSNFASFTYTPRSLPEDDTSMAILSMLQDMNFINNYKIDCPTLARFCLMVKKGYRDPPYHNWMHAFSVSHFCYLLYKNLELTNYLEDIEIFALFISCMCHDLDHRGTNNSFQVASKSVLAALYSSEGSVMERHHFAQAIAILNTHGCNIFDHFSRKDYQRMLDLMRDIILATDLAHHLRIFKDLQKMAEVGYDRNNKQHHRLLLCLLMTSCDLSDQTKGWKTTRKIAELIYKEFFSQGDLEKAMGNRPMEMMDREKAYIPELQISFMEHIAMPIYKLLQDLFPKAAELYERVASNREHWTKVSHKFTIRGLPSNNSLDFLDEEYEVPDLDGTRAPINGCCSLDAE

[14] = molecular target: High affinity cGMP-specific 3',5'-cyclic phosphodiesterase 9A (Homo sapiens, UniProt O76083); experiment: Inhibition of recombinant full lenght human PDE9A using fluorescent labeled cGMP as substrate after 15 mins by IMAP assay
High affinity cGMP-specific 3',5'-cyclic phosphodiesterase 9A, sequence (O76083 whole entry): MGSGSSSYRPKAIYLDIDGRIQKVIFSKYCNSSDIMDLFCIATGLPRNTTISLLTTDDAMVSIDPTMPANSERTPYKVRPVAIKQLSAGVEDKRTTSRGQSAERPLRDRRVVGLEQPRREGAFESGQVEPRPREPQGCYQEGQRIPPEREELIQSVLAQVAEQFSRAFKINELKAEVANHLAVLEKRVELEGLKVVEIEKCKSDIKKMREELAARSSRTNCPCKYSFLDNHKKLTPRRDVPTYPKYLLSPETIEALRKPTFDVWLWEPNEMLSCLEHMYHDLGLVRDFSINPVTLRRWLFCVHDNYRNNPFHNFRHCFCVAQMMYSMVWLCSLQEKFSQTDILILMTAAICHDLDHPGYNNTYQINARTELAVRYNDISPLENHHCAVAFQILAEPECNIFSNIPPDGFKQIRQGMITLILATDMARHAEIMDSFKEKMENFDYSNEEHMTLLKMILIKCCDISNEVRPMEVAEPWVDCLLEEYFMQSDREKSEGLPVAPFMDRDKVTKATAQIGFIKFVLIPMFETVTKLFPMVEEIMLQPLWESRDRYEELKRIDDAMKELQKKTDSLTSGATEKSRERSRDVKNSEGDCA

[15] = Inhibition of bovine retinal PDE6 using fluorescent labeled cGMP as substrate after 15 mins by IMAP assay
[16] = molecular target: cGMP-inhibited 3',5'-cyclic phosphodiesterase 3B (Homo sapiens, UniProt Q13370); experiment: Inhibition of recombinant full length human PDE3B using fluorescent labeled cAMP as substrate after 15 mins by IMAP assay
cGMP-inhibited 3',5'-cyclic phosphodiesterase 3B, sequence (Q13370 whole entry): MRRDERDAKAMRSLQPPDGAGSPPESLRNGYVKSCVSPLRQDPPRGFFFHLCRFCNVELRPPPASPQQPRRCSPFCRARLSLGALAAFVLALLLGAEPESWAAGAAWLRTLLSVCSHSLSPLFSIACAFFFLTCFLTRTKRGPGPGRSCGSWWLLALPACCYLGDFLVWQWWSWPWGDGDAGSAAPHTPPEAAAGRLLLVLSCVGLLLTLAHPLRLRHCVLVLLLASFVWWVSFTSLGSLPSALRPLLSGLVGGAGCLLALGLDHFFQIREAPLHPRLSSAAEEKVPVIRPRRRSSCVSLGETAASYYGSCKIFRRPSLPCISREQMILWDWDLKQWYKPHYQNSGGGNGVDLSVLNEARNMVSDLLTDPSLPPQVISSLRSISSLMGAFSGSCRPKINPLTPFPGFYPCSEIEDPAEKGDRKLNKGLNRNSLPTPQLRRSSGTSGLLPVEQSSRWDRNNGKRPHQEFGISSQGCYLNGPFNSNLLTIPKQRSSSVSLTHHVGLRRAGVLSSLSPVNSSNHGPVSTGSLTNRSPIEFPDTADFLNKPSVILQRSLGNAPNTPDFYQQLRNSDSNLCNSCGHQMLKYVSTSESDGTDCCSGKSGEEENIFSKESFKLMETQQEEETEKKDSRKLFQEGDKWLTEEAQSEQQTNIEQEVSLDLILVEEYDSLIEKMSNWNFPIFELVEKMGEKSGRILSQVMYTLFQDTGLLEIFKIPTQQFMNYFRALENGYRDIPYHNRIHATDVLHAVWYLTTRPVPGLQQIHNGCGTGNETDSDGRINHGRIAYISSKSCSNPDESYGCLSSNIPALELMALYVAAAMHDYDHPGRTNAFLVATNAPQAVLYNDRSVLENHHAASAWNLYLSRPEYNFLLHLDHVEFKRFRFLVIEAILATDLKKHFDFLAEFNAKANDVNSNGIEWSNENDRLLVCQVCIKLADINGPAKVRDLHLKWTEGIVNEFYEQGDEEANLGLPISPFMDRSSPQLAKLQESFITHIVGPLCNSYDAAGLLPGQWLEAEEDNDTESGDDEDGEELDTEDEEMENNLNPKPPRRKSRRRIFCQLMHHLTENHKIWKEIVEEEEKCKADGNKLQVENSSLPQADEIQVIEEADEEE

[17] = molecular target: 3',5'-cyclic-AMP phosphodiesterase 7B (Homo sapiens, UniProt Q9NP56); experiment: Inhibition of recombinant full lenght human PDE7B using fluorescent labeled cAMP as substrate after 15 mins by IMAP assay
3',5'-cyclic-AMP phosphodiesterase 7B, sequence (Q9NP56 whole entry): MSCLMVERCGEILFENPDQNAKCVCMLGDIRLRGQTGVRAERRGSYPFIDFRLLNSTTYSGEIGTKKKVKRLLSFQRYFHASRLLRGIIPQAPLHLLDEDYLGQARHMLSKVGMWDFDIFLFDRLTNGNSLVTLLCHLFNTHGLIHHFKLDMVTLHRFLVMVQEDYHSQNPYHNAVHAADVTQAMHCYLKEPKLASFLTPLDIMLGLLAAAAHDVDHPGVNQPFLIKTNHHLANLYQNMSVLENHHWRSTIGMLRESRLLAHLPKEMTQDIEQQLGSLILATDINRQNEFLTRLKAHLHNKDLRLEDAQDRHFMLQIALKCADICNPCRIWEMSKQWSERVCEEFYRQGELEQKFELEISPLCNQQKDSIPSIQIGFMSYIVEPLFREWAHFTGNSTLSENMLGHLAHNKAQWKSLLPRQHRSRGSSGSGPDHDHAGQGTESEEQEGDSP

[18] = molecular target: cAMP and cAMP-inhibited cGMP 3',5'-cyclic phosphodiesterase 10A (Homo sapiens, UniProt Q9Y233); experiment: Inhibition of recombinant full lenght human PDE10A using fluorescent labeled cAMP as substrate after 15 mins by IMAP assay
[19] = molecular target: cGMP-specific 3',5'-cyclic phosphodiesterase (Homo sapiens, UniProt O76074); experiment: Inhibition of recombinant full lenght human PDE5A using fluorescent labeled cGMP as substrate after 15 mins by IMAP assay
[20] = molecular target: High affinity cAMP-specific and IBMX-insensitive 3',5'-cyclic phosphodiesterase 8A (Homo sapiens, UniProt O60658); experiment: Inhibition of recombinant full lenght human PDE8A using fluorescent labeled cAMP as substrate after 15 mins by IMAP assay
High affinity cAMP-specific and IBMX-insensitive 3',5'-cyclic phosphodiesterase 8A, sequence (O60658 whole entry): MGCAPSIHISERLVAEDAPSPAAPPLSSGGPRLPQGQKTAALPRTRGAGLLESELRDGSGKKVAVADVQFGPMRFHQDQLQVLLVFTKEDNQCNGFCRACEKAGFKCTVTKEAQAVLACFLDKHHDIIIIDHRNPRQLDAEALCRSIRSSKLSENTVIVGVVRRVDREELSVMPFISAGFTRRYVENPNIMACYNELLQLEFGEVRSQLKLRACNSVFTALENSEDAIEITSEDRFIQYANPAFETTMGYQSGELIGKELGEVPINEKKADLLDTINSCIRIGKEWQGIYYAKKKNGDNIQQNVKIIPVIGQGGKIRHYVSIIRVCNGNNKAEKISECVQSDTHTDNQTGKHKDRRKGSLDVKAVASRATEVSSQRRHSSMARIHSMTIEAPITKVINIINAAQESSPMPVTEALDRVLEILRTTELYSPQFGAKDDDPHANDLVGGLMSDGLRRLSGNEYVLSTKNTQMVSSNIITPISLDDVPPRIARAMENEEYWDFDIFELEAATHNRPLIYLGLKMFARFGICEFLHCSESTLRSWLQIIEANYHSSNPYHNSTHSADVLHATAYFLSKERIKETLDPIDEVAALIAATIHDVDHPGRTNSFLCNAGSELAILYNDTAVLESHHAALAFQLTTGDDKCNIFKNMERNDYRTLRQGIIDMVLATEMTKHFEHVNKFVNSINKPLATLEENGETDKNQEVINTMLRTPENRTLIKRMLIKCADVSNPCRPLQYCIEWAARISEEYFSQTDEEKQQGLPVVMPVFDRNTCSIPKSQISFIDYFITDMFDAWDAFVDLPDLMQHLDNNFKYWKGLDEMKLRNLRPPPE

[21] = AUC(infinity) in Sprague-Dawley rat at 9.75 mg/kg administered through oral gavage; type: ADME, organism-based; design: dose 9.75 mg/kg, route oral, time infinity; settings: in vivo
[22] = Tmax in Sprague-Dawley rat at 9.75 mg/kg administered through oral gavage; type: ADME, organism-based; settings: in vivo
[23] = Half time in Sprague-Dawley rat at 9.75 mg/kg administered through oral gavage; type: ADME, organism-based; settings: in vivo
[24] = Cmax in Sprague-Dawley rat at 9.75 mg/kg administered through oral gavage; type: ADME, organism-based; design: dose 9.75 mg/kg, route oral; settings: in vivo
[25] = Half time in Sprague-Dawley rat at 1 mg/kg, iv; type: ADME, organism-based; settings: in vivo
[26] = Oral bioavailability in Sprague-Dawley rat at 9.75 mg/kg administered through gavage; type: ADME, organism-based; settings: in vivo
[27] = Volume of distribution in Sprague-Dawley rat at 1 mg/kg, iv; type: ADME, organism-based; settings: in vivo
[28] = AUC(infinity) in Sprague-Dawley rat at 1 mg/kg, iv; type: ADME, organism-based; design: dose 1 mg/kg, time infinity, route intravenous; settings: in vivo
[29] = Clearance in Sprague-Dawley rat at 1 mg/kg, iv; type: ADME, organism-based; settings: in vivo

| SMILES | CLint scaled [1] | Ki [2] | Cmax [3] | logD [4] | logD [5] | Cmax [6] | AUC(0-t) [7] | solubility [8] | Ratio Ki [9] | Ki [10] | Kp [11] | AUC(0-t) [12] | also measured |
| --- | --- | --- | --- | --- | --- | --- | --- | --- | --- | --- | --- | --- | --- |
| CN1C(=O)c2c(nn(Cc3ccc(-c4cccc(F)n4)cc3)c2Cc2ccc(F)cc2)N2C1=N[C@@H]1CCC[C@@H]12 | 81 mL/min/kg | 780 nM | 81 ng/mL | 1.42 | > 5 | 44 ng/mL | 69 ng·h/mL | < 1 µM | 339 | 2.3 nM | 1.6 | 109 ng·h/mL |  |
| CN1C(=O)c2c(nn(Cc3ccc(-c4cccc(F)n4)cc3)c2Sc2ccccc2)N2C1=N[C@@H]1CCC[C@@H]12 | 208 mL/min/kg | 930 nM | 71 ng/mL | 2.49 | > 5 | 93 ng/mL | 108 ng·h/mL | < 1 µM | 179 | 5.2 nM | 0.8 | 81 ng·h/mL |  |
| CN1C(=O)c2c(nn(Cc3ccc(S(N)(=O)=O)cc3)c2Nc2ccccc2)N2C1=N[C@@H]1CCC[C@@H]12 |  | 1200 nM | 16 ng/mL | -0.96 | 1.96 | 650 ng/mL | 785 ng·h/mL | > 100 µM | 857 | 1.4 nM | 0.02 | 15 ng·h/mL |  |
| CN1C(=O)c2c(nn(Cc3ccc(-c4cccc(F)n4)cc3)c2Oc2ccc(F)cc2)N2C1=N[C@@H]1CCC[C@@H]12 | 266 mL/min/kg | 220 nM | 64 ng/mL | 1.21 | 4.77 | 88 ng/mL | 119 ng·h/mL | 7 µM (≈ 3.69 µg/mL) | 33 | 6.6 nM | 0.9 | 102 ng·h/mL |  |
| CN1C(=O)c2c(nn(Cc3ccc(C(F)(F)F)nc3)c2Nc2ccccc2)N2C1=N[C@@H]1CCC[C@@H]12 |  | 1200 nM |  |  |  |  |  |  |  | 1.9 nM |  |  | Ki [13]: > 100000 nM; Ki [14]: > 100000 nM; Ki [15]: 5500 nM; Ki [16]: 42000 nM; Ki [17]: 6100 nM; Ki [18]: 19000 nM; Ki [19]: 1200 nM; Ki [20]: > 100000 nM |
| CN1C(=O)c2c(nn(Cc3ccc(-c4cccc(F)n4)cc3)c2Oc2ccccc2)N2C1=N[C@@H]1CCC[C@@H]12 | 214 mL/min/kg | 250 nM | 170 ng/mL | 1.05 | 4.61 | 165 ng/mL | 210 ng·h/mL | 8 µM (≈ 4.07 µg/mL) | 83 | 3 nM | 0.9 | 192 ng·h/mL |  |
| CN1C(=N)c2c(nn(Cc3ccc(C(F)(F)F)cc3)c2Nc2ccccc2)N2C1=N[C@@H]1CCC[C@@H]12 | 32 mL/min/kg | 18000 nM |  |  |  |  |  |  | 6.4 | 2800 nM |  |  |  |
| CN1C(=O)c2c(nn(Cc3ccc(-c4ccccc4)cc3)c2Nc2ccccc2)N2C1=N[C@@H]1CCC[C@@H]12 |  | 1300 nM | 474 ng/mL | 1.92 | > 5 | 130 ng/mL | 286 ng·h/mL | 2 µM (≈ 0.977 µg/mL) |  | 0.85 nM |  | 542 ng·h/mL | Ki [13]: 37000 nM; AUC(0-inf) [21]: 816 ng·h/mL; Ki [14]: > 100000 nM; Tmax [22]: 4 h; Ki [15]: 1100 nM; Ki [16]: 1500 nM; Ki [17]: 910 nM; Ki [18]: 7900 nM; half-life [23]: 3.1 h; Cmax [24]: 102 ng/mL; Ki [19]: 1600 nM; Ki [20]: 33000 nM |
| CN1C(=O)c2c(nn(Cc3ccc(-c4ccc(F)cn4)cc3)c2Nc2ccccc2)N2C1=N[C@@H]1CCC[C@@H]12 | 125 mL/min/kg | 500 nM |  |  |  |  |  |  | 6760 | 0.074 nM |  |  |  |
| CN1Cc2c(nn(Cc3ccc(C(F)(F)F)cc3)c2Nc2ccccc2)N2C1=N[C@@H]1CCC[C@@H]12 | 64 mL/min/kg | 37000 nM |  |  |  |  |  |  | 841 | 44 nM |  |  |  |
| CN1C(=O)c2c(nn(Cc3ccc(C(F)(F)F)cc3)c2Nc2ccc(F)cc2)N2C1=N[C@@H]1CCC[C@@H]12 | 73 mL/min/kg | 420 nM | 133 ng/mL | 1.11 | 4.57 | 21 ng/mL | 24 ng·h/mL | 31 µM (≈ 15.5 µg/mL) | 667 | 0.63 nM | 6.9 | 166 ng·h/mL | half-life [25]: 1.5 h; AUC(0-inf) [21]: 164 ng·h/mL; Tmax [22]: 0.5 h; bioavailability [26]: 6%; Vd [27]: 7.48 L/kg; AUC(0-inf) [28]: 292 ng·h/mL; clearance [29]: 57 mL/min/kg; half-life [23]: 2.2 h; Cmax [24]: 42 ng/mL |
| CN1Cc2c(nn(Cc3ccc(-c4ccccn4)cc3)c2Nc2ccccc2)N2C1=N[C@@H]1CCC[C@@H]12 | 59 mL/min/kg | 18000 nM |  |  |  |  |  |  | 720 | 25 nM |  |  |  |
| CN1C(=O)c2c(nn(Cc3ccc(-c4cccc(F)n4)cc3)c2Cc2ccccc2)N2C1=N[C@@H]1CCC[C@@H]12 | 165 mL/min/kg | 770 nM | 101 ng/mL | 1.36 | 4.96 | 86 ng/mL | 134 ng·h/mL | < 1 µM | 350 | 2.2 nM | 1.2 | 154 ng·h/mL |  |
| CN1C(=O)c2c(nn(Cc3ccc(-c4cc(F)ccn4)cc3)c2Nc2ccccc2)N2C1=N[C@@H]1CCC[C@@H]12 | 218 mL/min/kg | 330 nM |  |  |  |  |  |  | 5320 | 0.062 nM |  |  |  |
| O=C1NC2=N[C@@H]3CCC[C@@H]3N2c2nn(Cc3ccc(C(F)(F)F)cc3)c(Nc3ccccc3)c21 | 22 mL/min/kg | 550 nM |  |  |  |  |  |  | 2 | 290 nM |  |  |  |
